The source of these data is patent US9359451B2, “Methods and compositions for treating trauma-hemorrhage using estrogen and derivatives thereof” (THE UAB RESEARCH FOUNDATION, priority 2012, dated 2016).

The test system of experiment [1] is cardiac performance. Briefly: SPECT-CT of cardiac performance after severe hemorrhage. The experiment is classed as in vivo, rat. As to conditions: FIG. 46. On the procedure: This was measured by SPECT-CT (single photon emission computed tomography-computed tomography) which enables the measurement of the volume of blood forced from the heart visualized through 3-D, real-time imaging (FIG. 46).

Experiment [2] has as its system Splenocytes. As to the kind of experiment: Splenocyte proliferation and cytokine release after trauma-hemorrhage (ex vivo, Con A). In kind it is in vivo, mouse. How it is done: Experimental groups. Ovariectomy was performed in female CBA/J mice 2 wk before trauma-hemorrhage using two dorsolateral incisions. […] Two weeks after ovariectomy, the animals were divided into four groups. Groups 1 and 2 consisted of sham-operated ovariectomized females, which were neither hemorrhaged nor resuscitated. Animals in groups 3 and 4 consisted of ovariectomized females, which were subjected to the trauma-hemorrhage procedure. Immediately before initiation of fluid resuscitation, animals in groups 1 and 3 received a subcutaneous injection of vehicle ([…] corn oil), and animals in groups 2 and 4 were treated with E2 ([…]/25 g body wt dissolved in […] corn oil). Each group consisted of 7-8 animals.
Trauma-hemorrhage procedure. Mice in the trauma-hemorrhage groups were lightly anesthetized with methoxyflurane (Metofane; Pitman Moore, Mundelein, Ill.) and restrained in a supine position, and a 2.5-cm midline laparotomy (i.e., soft tissue trauma induced) was performed, which was then closed aseptically in two layers using 6-0 Ethilon sutures (Ethicon, Somerville, N.J.). Both femoral arteries were then aseptically cannulated with polyethylene-10 tubing (Clay-Adams, Parsippany, N.J.) using a minimal dissection technique, and the animals were allowed to awaken. Blood pressure was constantly monitored by attaching one of the catheters to a blood pressure analyzer (Micro-Med, Louisville, Ky.). Lidocaine was applied to the incision sites to provide analgesia during the study period. Upon awakening, the animals were bled through the other catheter to a mean arterial blood pressure of 35±5 mmHg (mean arterial blood pressure prehemorrhage was 95±5 mmHg), which was maintained for 90 min. At the end of that procedure, the animals were resuscitated with four times the shed blood volume in the form of lactated Ringer solution. The catheters were then removed, the vessels were ligated, and the groin incisions were closed. Sham-operated animals underwent the same surgical procedure, which included ligation of both femoral arteries, but neither hemorrhage nor fluid resuscitation was carried out. There was no mortality observed in this model of trauma-hemorrhage.
Preparation of splenocyte culture. At 24 h after sham operation or trauma-hemorrhage and resuscitation, the spleens were removed aseptically and placed in separate petri dishes containing 4° C. phosphate-buffered saline (PBS) solution. Splenocytes were isolated as previously described in detail (Zellweger 1995). Briefly, the organs were gently ground between frosted microscope slides to produce a single cell suspension. This suspension was centrifuged at 300 g for 15 min. After resuspension, the erythrocytes were lysed hypotonically, and the remaining cells were washed with PBS by centrifugation (300 g, 15 min). Viability was tested using trypan blue exclusion and found to be ˜95% regardless of the group assessed. […] The ability of the splenocyte cultures to produce cytokines in response to a mitogenic challenge was assessed by incubation for 48 h (at 37° C., 5% CO2, and 90% humidity) in the presence of […] concanavalin A (Con A; Pharmacia/LKB Biotech, Piscataway, N.J.). […]
Splenocyte proliferation. […] The cells' ability to proliferate in response to mitogenic stimulation with 0 (negative control) or […] Con A was measured by [^3H]thymidine incorporation technique as previously de scribed (Stephan 1987). […]

The test system of experiment [3] is Sprague-Dawley adult male rats. As to the kind of experiment: Traumatic brain injury (lateral fluid percussion): ICP, CPP and pbtO2 monitoring. The experiment is classed as in vivo, rat. On the procedure: Sprague-Dawley adult male rats were divided into 4 groups: vehicle, E2-SO4 (1 mg/kg), sham+vehicle and sham+E2-SO4; n=5/group. The TBI model was lateral fluid percussion injury (LFP), induced via a hydraulic pressure pulse to the anesthetized rat's exposed brain. This was introduced through a burr hole in the lateral skull prepared one day prior to LFP. A single iv dose of E2-SO4 or saline vehicle was administered 1 hr after LFP. Physiological parameters were measured 24 hr post-injury.
In a second experiment, the efficacy of E2-SO4 treatment for TBI in a lateral fluid percussion (LFP) model was examined. This involved 6 groups of rats (n=5/group). All rats received a craniectomy. Groups 1, 2, 4 and 5 received LFP injury. Groups 1 and 4 were treated with E2 (1 mg/kg) 1 hr post-injury, groups 2 and 5 were vehicle (Veh)-treated and groups 3 and 6 were sham. Groups 1-3 underwent intracranial pressure (ICP), cerebral perfusion pressure (CPP) and partial oxygen pressure (pbtO2) monitoring. Groups 4-6 underwent fludoexoyglucose (FDG)-PET/CT and diffusion tensor imaging (DTI) analysis on days 1 and 7 post-induction. Relative standard uptake values (SUV) of upper half of brain to central value, fractional anisotropy (FA) and apparent diffusion coefficient (ADC) maps were calculated.
FIG. 48B is a plot of cerebral perfusion pressure, which is a derivative of mean arterial pressure less ICP. […] The X axis is shown for an extended 2 hours to confirm stability for the various probes used.
The clinical manifestation of edema after TBI can be seen as increased intracranial pressure, with lower brain perfusion pressure and reduced oxygen tension. […] FIG. 44 compares treatments for TBI with hormones, measured over a 120 min period to control the effects of the invasive probe on pressures. The treatments are progesterone (T+progesterone: magenta), progesterone plus E2-SO4 (T+E+P: brown), E2-SO4 (T+E2SO4: red) and EE-3-SO4 (T+EE-3SO4: yellow).

The mark [4] stands for this setting: 24 h after trauma-hemorrhage, Con A 48 h.

With `C[C@]12CC[C@@H]3c4ccc(O)cc4CC[C@H]3[C@@H]1CC[C@@H]2O` [17β-estradiol], the “cardiac performance as ejection fraction (SPECT-CT)” value in experiment [1] is “substantially enhance cardiac performance as ejection fraction”. Also, in experiment [2] (setting [4]), the “splenocyte IFN-γ release” value is “no depression of IFN-γ production was observed”, the “splenocyte IL-2 production” value is “restored IL-2 productive capacity” and the “splenocyte IL-3 release” value is listed as “significantly improved splenocyte IL-3 release capacity”. For the same compound, in experiment [2] (24 h after trauma-hemorrhage, Con A, [3H]thymidine), the splenocyte proliferative capacity result is listed as “no depression of splenocyte proliferative capacity was observed”. Besides, the “splenocyte IL-10 production” value in experiment [2] (after trauma-hemorrhage compared with E2-treated sham-operated animals) is “significantly reduced IL-10 production”. Moreover, in experiment [3] (FIG. 48, E2 treatment administered 24 hours after TBI), the “oxygen delivery to the injured brain” value is “enhances oxygen delivery to the injured brain”. In experiment [3] (TBI (LFP), 1 mg/kg 1 hr post-injury, Veh 65.2±1.4, sham 82.1±1.3), the “CPP (cerebral perfusion pressure)” value was determined as 75.7±1.4 mmHg. In addition, the “pbtO2 (brain tissue oxygen partial pressure)” value in experiment [3] (TBI (LFP), 1 mg/kg iv 1 hr after injury, 24 hr post-injury, vehicle 15.8±1.3, sham 39.6) was 34.1±1.6 mmHg.
